# According to US20030125235A1, “Treatment of diseases associated with cytokine production with inhibitors of the tec family of protein tyrosine kinases” (priority 2000, published 2003):
# Legend:
# [1] = tested on: RAW 264.7 murine macrophages; test: LPS-induced TNF-α production in RAW 264.7 murine macrophages (ELISA); format: cell-based
# Protocol: The murine macrophage cell line, Raw 264.7 were maintained in DMEM medium supplemented with 100 units/ml penicillin/streptomycin and 5% heat-inactivated fetal calf serum at 37° C. in a humidified atmosphere containing 5% CO2.
# (§1) Supernatants from experiments using either human macrophages, rheumatoid synovial cells or PBMCs were analyzed for TNF-α ot IL-1 by enzyme-linked immunosorbent assay (ELISA). The ELISA for hTNF-α was performed as described by Engelberts et al. (1991) Lymphokine Cytokine Res. 10, 60-76.
# This compound was investigated for its effects on TNF-α production. […] Supernatants were then harvested and assayed for TNF-α by ELISA as described in the Methods section.
# [2] = molecular target: Btk (Homo sapiens, UniProt Q06187); details: literature (Kawakami et al. 1999; Mahajan et al. 1999); cited from earlier work
# [3] = tested on: Lyn, Syk or MAP kinases; details: Kawakami et al. 1999; cited from earlier work
# [4] = tested on: TNF production; details: cited from earlier work; for LPS-induced TNF production: Geng et al. 1993
# [5] = tested on: RA synovial membrane cultures; test: Spontaneous TNF production in rheumatoid arthritis synovial membrane cultures (ELISA); format: cell-based, human; details: overnight culture; FIG. 10
# Protocol: Synovium from rheumatoid patients undergoing joint replacement surgery was dissociated by cutting into small pieces, digested with collagenase and DNase (Buchan et al., 1988). The total cell mixture consisting predominantly of T cells and macrophages were cultured at a density of 1×10^6 cells/ml in RPMI containing 100 units/ml penicillin/streptomycin and 5% heat-inactivated fetal calf serum.
# as §1
# RA synovial cultures were treated with herbimycin at the given concentrations. Following overnight culture the supernatants were harvested and TNF expression measured by ELISA.
# [6] = tested on: human monocytes; details: Stefanova et al. 1993; cited from earlier work
# Sequence of Btk (Q06187 whole entry, species assumed): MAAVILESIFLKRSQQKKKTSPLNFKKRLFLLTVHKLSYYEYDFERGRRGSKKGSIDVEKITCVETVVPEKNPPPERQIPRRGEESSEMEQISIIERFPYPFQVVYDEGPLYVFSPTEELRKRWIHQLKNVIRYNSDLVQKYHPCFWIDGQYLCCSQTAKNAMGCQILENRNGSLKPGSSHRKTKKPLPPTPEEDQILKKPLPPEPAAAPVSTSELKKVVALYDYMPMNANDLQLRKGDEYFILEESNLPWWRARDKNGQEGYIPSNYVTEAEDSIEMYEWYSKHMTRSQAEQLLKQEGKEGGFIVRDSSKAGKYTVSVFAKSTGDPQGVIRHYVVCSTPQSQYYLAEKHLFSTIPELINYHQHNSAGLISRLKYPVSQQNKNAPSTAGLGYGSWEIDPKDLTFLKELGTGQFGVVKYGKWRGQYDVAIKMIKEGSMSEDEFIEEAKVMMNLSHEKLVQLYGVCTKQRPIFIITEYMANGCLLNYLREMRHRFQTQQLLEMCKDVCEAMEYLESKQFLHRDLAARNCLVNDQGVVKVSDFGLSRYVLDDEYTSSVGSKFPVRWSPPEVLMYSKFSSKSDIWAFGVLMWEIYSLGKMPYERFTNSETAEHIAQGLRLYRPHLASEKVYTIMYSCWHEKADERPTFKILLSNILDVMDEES
structure (smiles),measurement,setting,value
C/C(O)=C(\C#N)C(=O)Nc1cc(Br)ccc1Br [LFM-A13],inhibition of LPS-induced TNF-α expression,"[1]; 200 μM, 1 h pretreatment, LPS 10 ng/ml for 4 h, FIG. 3",44%
same,toxicity limiting the usable concentration,[1]; above 200 μM,toxicity
same,block of LPS-induced TNF-α expression (concentration dependence),"[1]; various concentrations, 1 h pretreatment, LPS 10 ng/ml for 4 h, FIG. 3",dose-dependent manner
CC1=C(O)C(=O)[C@@H]2O[C@@H]2C1=O [Terreic acid],inhibition of Btk,[2],inhibit Btk
same,"effect on activity of Lyn, Syk or MAP kinases",[3],without affecting the activity
O=c1c(-c2ccc(O)cc2)coc2cc(O)cc(O)c12 [genistein],LPS-induced TNF production,[4],block
CO[C@H]1[C@@H](OC)C[C@H](C)[C@@H](OC)C2=CC(=O)C=C(NC(=O)/C(C)=C/C=C\[C@H](OC)[C@@H](OC(N)=O)/C(C)=C/[C@@H]1C)C2=O [herbimycin],inhibition of spontaneous TNF production,[5],potent inhibitor
same,LPS-induced production of TNF-α and IL-1,[6],completely blocks
same,LPS-induced TNF production,[4],block
N#CC(C#N)=Cc1ccc([N+](=O)[O-])c(O)c1 [tyrophostin AG126],TNF production,[4]; Novogradsky et al. 1994,block
